The values below come from patent US20230404980A1, “METHODS OF TREATING SPONDYLOARTHRITIS OR SYMPTOMS THEREOF” (UNIVERSITY HEALTH NETWORK, priority 2020, published 2023).

The conditions of data set [1]: cited from earlier work.
The test system of data set [2] is curdlan-treated SKG mice. Briefly: Curdlan-treated SKG mouse model of SpA: clinical scores, histopathology, microCT. The class given is in vivo. The method, then:
(§1) Methods: Curdlan (β-glucan) or MIF-plasmid (mini-circle) treated SKG mice (8-10 weeks) were used as SpA mouse models. The expression of MIF in serum or tissues was measured by ELISA, quantitative PCR (qPCR), western blotting, immunohistochemistry (IHC) and/or immunofluorescence (IF). MIF knockout (KO) SKG mice were generated as MIF deficiency mice. MIF inhibitor (MIF098) was used to block the function of MIF in SpA mouse models to assess the therapeutic or prophylactic effects in a curdlan-treated SpA mouse model. Populations of immunological cells were assessed by flow cytometry. Anti-Gr-1 monoclonal antibody (mAb) or isotype control mAb was used to block the function of neutrophils or monocytes. Clinical scores, histopathology and microCT imaging were used to assess the severity of inflammation in the various tissues of the mouse models.
#1. Animal model, treatments and clinical scoring: Female and male SKG mice (age 8-10 weeks) were injected with PBS, curdlan (3 mg/mouse, i.p.), MIF-plasmid (EEV, 5 μg/mouse, i.v., from systemic biosciences), or control-plasmid (5 μg/mouse, i.v., from systemic biosciences) to induce SpA phenotype and weekly observed the clinical manifestations of inflammation and NBFs over 8 weeks (n=10 mice/group). C57BL/6 and BALB/c mice (age 8-10 weeks) were also subjected to MIF- or control-plasmid injection to observe clinical symptoms. MIF- or control plasmid was administered by HDD tail vein injection as previously described (11). We also generated Mif−/− (KO) SKG mice by crossing SKG mice and BALB/c Mif KO mice (22).
(§2) After 1 or 4 weeks post-curdlan treatment, we injected MIF antagonist (MIF098; 40 mg/kg, twice/day, i.p.) (23) or control vehicle [PEG400 (Sigma, cat#91893) and HP-P-P-CD (Sigma, cat#C0926)] to assess the prophylactic and therapeutic effects of the MIF098 on the inflammation and NBFs in the SpA mouse model until 8 weeks post-curdlan treatment. Anti-mouse Gr-1 antibody (100 μg/mouse, Life Technologies) or isotype IgG monoclonal antibodies (100 μg/mouse, Life Technologies) were administered on day 3, 6, 9, 12 and 15 post-curdlan treatment.
(§3) Clinical scores for SpA-related manifestations were assessed based on severity scales (Table 1); arthritis, maximum 6 points; dermatitis, maximum 2 points; blepharitis, maximum 2 points). The scores were evaluated at least 2 independent scorers in a blinded fashion and final scores were the average of the observations. At the endpoint, ankle joints, spleen and lymph nodes (PLNs and MLNs) were dissected for FACS, one ankle was dissected prior to storage in RNA later for qPCR unless used for FACS, the other ankle was kept intact and fixed in 10% neutral buffered formalin for histopathological assessments. The upper tail spine, pelvis, eyes and ileum were dissected and fixed in 10% neutral buffered formalin for histopathology. For ankle digestion, skin was peeled off and toes (at distal phalanges) and tibia (˜0.5 cm above tibia) were cut off. After flushing bone marrow, the tissue was digested with RPMI culture media containing hyaluronidase and collagenase type VIII for 1 h at 37° C. in incubator. Following passing through 70 μm of cell strainer and RBC lysis treatment, cells were centrifuged and used for FACS analysis.
Ankle joints, tail spine, and pelvis were fixed in 10% neutral buffered formalin for at least 72 h, decalcified in 10% EDTA (BioShop) for 14-21 days and embedded in paraffin. Eyes and ileum were fixed in formalin for at least 72 h without decalcification. Serial sections (4 μm) were stained with hematoxylin and eosin (H&E; Fisher Scientific). To assess endochondral ossification, safranin O/ fast green staining was also applied to NBF in distal tibia as previously described (24, 25). For histological scores, multiple sections (three sections approximately 40-80 μm apart) per joint sample were evaluated by 2 independent scorers in a blinded fashion according to histological assessments as previously reported (11, 24). […]

For data set [3], the system named is curdlan-treated SKG mice. The data set is described as follows: Flow cytometry of immune cell populations from curdlan-treated SKG mice. The class given is in vivo, mouse. The method, then: as §1, §2, §3
For all panels, single cell suspensions were first stained with a fixable live dead stain (L/D NIR, Invitrogen, cat#L10119) as directed by the manufacturers. Cells were blocked with FcX (BioLegend, cat#101320) or Monocyte Blocker (BioLegend, cat#426102) prior to staining with surface antibodies. For experiments in which transcription factors were stained, cells were fixed and permeabilized with True-Nuclear kit (BioLegend, cat#424401) as directed. For experiments in which cytokines were stained, cells were fixed with a PFA buffer and permeabilized with intracellular staining buffer (BioLegend, cat#420801 and cat#421002) as indicated. Brefeldin A (BioLegend, cat#420601) with or without PMA/ionomycin (BioLegend, cat#423302) were used for in vitro stimulations to detect intracellular cytokines. Data were acquired on LSR II or Canto II (BD) and analyzed with FlowJo (version 10.6, Becton Dickinson).
(In general: A flow cytometer gives signals particle by particle.)

The next data set relates to human Tregs. Briefly: Th17 acquisition assay in human Tregs and cytokine measurement. The class given is cell-based. Conditions: rhMIF 50 ng/ml, 12 days. The method, then: Human naïve CD4+ T cells and Tregs (CD4+CD25+CD127low) were isolated from PBMCs of healthy male controls without any history of back pain, arthritis, and joint injuries (age: 18-40, n=4 individuals in total) using the human naïve T cells isolation kit (STEM CELL, Cat #19555) and Treg isolation kit (STEM CELL, cat#18063), respectively. Isolated human Tregs (3×10^4 cells/well) were cultured in the complete IMDM culture media containing ImmunoCult™ Human CD3/CD28/CD2 T Cell Activator (25 μl/ml, STEMCELL, cat#10970), and rhIL-2 (100 IU/ml, BioLegend, cat#589102) alone or in combination with or without rhMIF (50 ng/ml, BioLegend, cat#599404), rhIL-1β (25 ng/ml, BioLegend, cat#579402) and rhIL-23 (100 ng/ml, BioLegend, cat#574102) for 12 days. Each culture media was replaced ever 2-3 days. The cells were used for further analysis.
Released cytokine in cell culture supernatant on day 12 was quantified using the LEGENDplex Human Th17 Cytokine Panel (BioLegend, cat#741032) according to the manufacturer's instructions.
For all panels, single cell suspensions were first stained with a fixable live dead stain (L/D NIR, Invitrogen, cat#L10119) as directed by the manufacturers. Cells were blocked with FcX (BioLegend, cat#101320) or Monocyte Blocker (BioLegend, cat#426102) prior to staining with surface antibodies. For experiments in which transcription factors were stained, cells were fixed and permeabilized with True-Nuclear kit (BioLegend, cat#424401) as directed. […] Data were acquired on LSR II or Canto II (BD) and analyzed with FlowJo (version 10.6, Becton Dickinson).
The concentration of MIF in SKG mice or culture supernatant media and the concentration of IL-17A in the human Tregs culture media were assessed by mouse MIF ELISA kit (LEGEND MAX™ Mouse MIF ELISA Kit, BioLegend, cat# 44107) and Human IL-17A ELISA kit (LEGEND MAX™ Human IL-17A ELISA Kit, BioLegend, cat# 433917) were used, respectively. Samples were analyzed according to the manufacture's instruction.

Setting [4] is: prophylactic: MIF098 40 mg/kg i.p. twice daily from 1 to 8 weeks post-curdlan, female SKG mice, vs CTL.
The mark [5] stands for this setting: SKG SpA mouse model, summary of Example 1.
Setting [6] is: prophylactic MIF098, 8 weeks post-curdlan, vs CTL.

For the molecule `CC(C)C(=O)c1c(C(C)C)nn2ccccc12` [Ibudilast, 2-methyl-1-(2-propan-2-ylpyrazolo[1,5-a]pyridin-3-yl)propan-1-one], the “toxicity in clinical trials” value in data set [1] (clinical trials for asthma and multiple sclerosis) is reported as “minimal toxicity”. Also, the safety entry in data set [1] (single 30-mg dose followed by 14 days of 30 mg b.i.d, healthy adults) was “generally safe”.
In the case of `C=C1Cc2ccc(C)cc2C1Cc1cccc(C)c1` (stereo not shown) [MIF098], the “SpA clinical manifestations (colitis, psoriasis, arthritis in axial and peripheral joints)” value in the data set on curdlan-treated SKG mice [2] (SKG SpA mouse model, MIF blockade) is recorded as “dramatically suppressed or attenuated”. For the same molecule, the “inflammation in the ankle, tail spine, sacroiliac joints, and ileum (histology and histopathology scoring)” value in the data set on curdlan-treated SKG mice [2] (prophylactic, 8 weeks post-curdlan, vs CTL) is recorded as “Lower severity of inflammation”. In addition, the “new bone formation (NBF), microCT imaging and histological assessments” value with curdlan-treated SKG mice [2] (prophylactic, distal tibia, 8 weeks post-curdlan, vs CTL) is given as “did not display an evident NBF”. In the data set with curdlan-treated SKG mice [2] (setting [4]), the “severity of blepharitis (clinical score)” value is “reduced severity” and the “severity of psoriasis-like dermatitis (clinical score)” value is “reduced severity”. For the same molecule, in the data set on curdlan-treated SKG mice [2] (prophylactic: MIF098 40 mg/kg i.p. twice daily from 1 to 8 weeks post-curdlan, female SKG mice, vs vehicle control (CTL)), the “severity of arthritis (clinical score)” value is “reduced severity”. The “severity of psoriasis-like dermatitis” value with curdlan-treated SKG mice [2] (therapeutic: MIF098 from 4 weeks to 8 weeks post-curdlan, female SKG mice, vs CTL) was “reduced the severity”. Also, the “new bone formation (NBF), histological assessments” value in the data set on curdlan-treated SKG mice [2] (therapeutic: MIF098 from 4 weeks to 8 weeks post-curdlan, vs CTL) is “reduced”. For the same molecule, the severity of arthritis result with curdlan-treated SKG mice [2] (therapeutic: MIF098 injected from 4 weeks to 8 weeks post-curdlan, female SKG mice, vs CTL) is on record as “reduced the severity”. Besides, in the data set on curdlan-treated SKG mice [3] (setting [5]), the “populations of Th17” value is “decreased populations of Th17” and the “regulatory T (Treg) cells” value is given as “increased”. Also, in the data set on curdlan-treated SKG mice [3] (curdlan-treated SKG mice, 8 weeks post-curdlan, vs CTL), the “RORγt+Foxp3+CD4+ T cells” value is listed as “decreased”. In the data set on curdlan-treated SKG mice [3] (setting [6]), the “frequency of ILC3s in PLNs” value was “significantly deceased”, the “frequency of Th17 lineage cells in PLNs” value is reported as “significantly deceased”, the “percentage of Th17 lineage cells in spleen” value was “no significant difference” and the “percentage of Tregs (PLNs)” value is given as “significant increase”. Moreover, in the data set on curdlan-treated SKG mice [3] (setting [6]), the “percentage of Tregs in spleen” value is recorded as “significant increase”, the “percentage of inflammatory macrophages in the ankle joints” value is “no difference between groups” and the “percentage of patrolling macrophages in the ankle joints” value was “increase”. For the same molecule, the ILC2s result in the data set with curdlan-treated SKG mice [3] (prophylactic MIF098, curdlan-treated SKG mice, vs CTL) was “remarkably increased”.

B1: rhMIF: recombinant human MIF (BioLegend) used to stimulate human Tregs (protein, UniProt P14174 2-115, looked up)
Macrophage migration …: PMFIVNTNVPRASVPDGFLSELTQQLAQATGKPPQYIAVHVVPDQLMAFGGSSEPCALCSLHSIGKIGGAQNRSYSKLLCGLLAERLRISPDRVYINYYDMNAANVGWNNSTFA
Take B1: the “release of IL-6” value with human Tregs was “without increased release”. Further, in the data set with human Tregs (in the presence of IL1β and IL23, vs without rhMIF), the “frequency of RORγt+CD4+ T cells from Tregs” value is given as “increased”. The “secretion of IL-17A into the culture media” value with human Tregs (vs control-treated Tregs) was “significantly higher”.
